Results: ChEMBL document CHEMBL5390284, “Shikimate-Derived Meroterpenoids from the Ascidian-Derived Fungus Amphichorda felina SYSU-MS7908 and Their Anti-Glioma Activity” (J Nat Prod, 2023)
Calls of active or inactive are those of the source. No cut-off for these calls is given here.

Assays:
[1] = tested on: T98G; assay: Antiproliferative activity against human T98G cells assessed as inhibition of cell growth at 100 uM incubated for 48 hrs by MTT assay; type: functional, cell-based
[2] = tested on: U-87 MG; assay: Antiproliferative activity against human U-87 MG cells assessed as inhibition of cell growth at 100 uM incubated for 48 hrs by MTT assay; type: functional
[3] = tested on: U-251; assay: Antiproliferative activity against human U-251 cells assessed as inhibition of cell growth at 100 uM incubated for 48 hrs by MTT assay; type: functional
[4] = tested on: U-251; assay: Induction of apoptosis in human U-251 cells assessed as early apoptotic cells at 10 uM incubated for 48 hrs by Annexin V-FITC/PI staining based flow cytometry analysis (reference value: 1.5 +/- 0.4 %); type: functional
[5] = tested on: U-87 MG; assay: Induction of apoptosis in human U-87 MG cells assessed as late apoptotic cells at 5 uM incubated for 48 hrs by Annexin V-FITC/PI staining based flow cytometry analysis (reference value: 11 +/- 1%); type: functional, U-87MG ATCC
[6] = tested on: U-87 MG; assay: Inhibition of cell invasion in human U-87 MG cells at 5 to 10 uM incubated for 48 hrs by crystal violet staining based fluorescent microscope analysis; type: functional; conditions: U-87MG ATCC, dose 5-10 µM
[7] = tested on: U-87 MG; assay: Induction of apoptosis in human U-87 MG cells assessed as early apoptotic cells at 5 uM incubated for 48 hrs by Annexin V-FITC/PI staining based flow cytometry analysis (reference value: 1.1 +/- 0.6 %); type: functional, U-87MG ATCC
[8] = tested on: U-251; assay: Induction of apoptosis in human U-251 cells assessed as total apoptotic cells at 5 uM incubated for 48 hrs by Annexin V-FITC/PI staining based flow cytometry analysis (reference value: 2.8 +/- 0.3%); type: functional
[9] = tested on: U-251; assay: Induction of apoptosis in human U-251 cells assessed as early apoptotic cells at 5 uM incubated for 48 hrs by Annexin V-FITC/PI staining based flow cytometry analysis (reference value: 1.5 +/- 0.4 %); type: functional
[10] = tested on: U-251; assay: Induction of apoptosis in human U-251 cells assessed as late apoptotic cells at 2 uM incubated for 48 hrs by Annexin V-FITC/PI staining based flow cytometry analysis (reference value: 1.3 +/- 0.6%); type: functional
[11] = tested on: T98G; assay: Induction of apoptosis in human T98G cells assessed as late apoptotic cells at 10 uM incubated for 48 hrs by Annexin V-FITC/PI staining based flow cytometry analysis (reference value: 3.7 +/- 0.3 %); type: functional
[12] = tested on: T98G; assay: Induction of apoptosis in human T98G cells assessed as early apoptotic cells at 5 uM incubated for 48 hrs by Annexin V-FITC/PI staining based flow cytometry analysis (reference value: 2.7 +/- 0.5 %); type: functional
[13] = tested on: U-87 MG; assay: Induction of apoptosis in human U-87 MG cells assessed as late apoptotic cells at 10 uM incubated for 48 hrs by Annexin V-FITC/PI staining based flow cytometry analysis (reference value: 11 +/- 1%); type: functional, U-87MG ATCC
[14] = tested on: U-87 MG; assay: Induction of apoptosis in human U-87 MG cells assessed as early apoptotic cells at 2 uM incubated for 48 hrs by Annexin V-FITC/PI staining based flow cytometry analysis (reference value: 1.1 +/- 0.6 %); type: functional, U-87MG ATCC
[15] = tested on: U-87 MG; assay: Inhibition of cell migration in human U-87 MG cells incubated for 48 hrs by inverted optical microscope based wound healing assay; type: functional; conditions: U-87MG ATCC
[16] = tested on: T98G; assay: Induction of apoptosis in human T98G cells assessed as total apoptotic cells at 10 uM incubated for 48 hrs by Annexin V-FITC/PI staining based flow cytometry analysis (reference value: 6.4 +/- 0.8 %); type: functional
[17] = tested on: T98G; assay: Induction of apoptosis in human T98G cells assessed as late apoptotic cells at 2 uM incubated for 48 hrs by Annexin V-FITC/PI staining based flow cytometry analysis (reference value: 3.7 +/- 0.3 %); type: functional
[18] = tested on: U-251; assay: Inhibition of cell migration in human U-251 cells incubated for 48 hrs by inverted optical microscope based wound healing assay; type: functional
[19] = tested on: U-251; assay: Induction of apoptosis in human U-251 cells assessed as early apoptotic cells at 2 uM incubated for 48 hrs by Annexin V-FITC/PI staining based flow cytometry analysis (reference value: 1.5 +/- 0.4 %); type: functional
[20] = tested on: U-251; assay: Induction of apoptosis in human U-251 cells assessed as late apoptotic cells at 5 uM incubated for 48 hrs by Annexin V-FITC/PI staining based flow cytometry analysis (reference value: 1.3 +/- 0.6%); type: functional
[21] = tested on: U-251; assay: Induction of apoptosis in human U-251 cells assessed as total apoptotic cells at 10 uM incubated for 48 hrs by Annexin V-FITC/PI staining based flow cytometry analysis (reference value: 2.8 +/- 0.3%); type: functional
[22] = tested on: U-87 MG; assay: Induction of apoptosis in human U-87 MG cells assessed as early apoptotic cells at 10 uM incubated for 48 hrs by Annexin V-FITC/PI staining based flow cytometry analysis (reference value: 1.1 +/- 0.6 %); type: functional, U-87MG ATCC
[23] = tested on: T98G; assay: Induction of apoptosis in human T98G cells assessed as early apoptotic cells at 10 uM incubated for 48 hrs by Annexin V-FITC/PI staining based flow cytometry analysis (reference value: 2.7 +/- 0.5 %); type: functional
[24] = tested on: T98G; assay: Induction of apoptosis in human T98G cells assessed as late apoptotic cells at 5 uM incubated for 48 hrs by Annexin V-FITC/PI staining based flow cytometry analysis (reference value: 3.7 +/- 0.3 %); type: functional
[25] = tested on: T98G; assay: Inhibition of cell invasion in human T98G cells at 5 to 10 uM incubated for 48 hrs by crystal violet staining based fluorescent microscope analysis; type: functional; conditions: dose 5-10 µM
[26] = tested on: U-251; assay: Inhibition of cell invasion in human U-251 cells at 5 to 10 uM incubated for 48 hrs by crystal violet staining based fluorescent microscope analysis; type: functional; conditions: dose 5-10 µM
[27] = tested on: U-251; assay: Induction of apoptosis in human U-251 cells assessed as total apoptotic cells at 2 uM incubated for 48 hrs by Annexin V-FITC/PI staining based flow cytometry analysis (reference value: 2.8 +/- 0.3%); type: functional
[28] = tested on: T98G; assay: Induction of apoptosis in human T98G cells assessed as early apoptotic cells at 2 uM incubated for 48 hrs by Annexin V-FITC/PI staining based flow cytometry analysis (reference value: 2.7 +/- 0.5 %); type: functional
[29] = tested on: U-87 MG; assay: Induction of apoptosis in human U-87 MG cells assessed as late apoptotic cells at 2 uM incubated for 48 hrs by Annexin V-FITC/PI staining based flow cytometry analysis (reference value: 11 +/- 1%); type: functional, U-87MG ATCC
[30] = tested on: T98G; assay: Induction of apoptosis in human T98G cells assessed as total apoptotic cells at 2 uM incubated for 48 hrs by Annexin V-FITC/PI staining based flow cytometry analysis (reference value: 6.4 +/- 0.8 %); type: functional
[31] = tested on: T98G; assay: Induction of apoptosis in human T98G cells assessed as total apoptotic cells at 5 uM incubated for 48 hrs by Annexin V-FITC/PI staining based flow cytometry analysis (reference value: 6.4 +/- 0.8 %); type: functional
[32] = tested on: U-87 MG; assay: Induction of apoptosis in human U-87 MG cells assessed as total apoptotic cells at 5 uM incubated for 48 hrs by Annexin V-FITC/PI staining based flow cytometry analysis (reference value: 16 +/- 1%); type: functional, U-87MG ATCC
[33] = tested on: T98G; assay: Inhibition of cell migration in human T98G cells incubated for 48 hrs by inverted optical microscope based wound healing assay; type: functional
[34] = tested on: U-251; assay: Induction of apoptosis in human U-251 cells assessed as late apoptotic cells at 10 uM incubated for 48 hrs by Annexin V-FITC/PI staining based flow cytometry analysis (reference value: 1.3 +/- 0.6%); type: functional
[35] = tested on: T98G; assay: Antiproliferative activity against human T98G cells assessed as inhibition of cell growth incubated for 48 hrs by MTT assay; type: functional, cell-based
[36] = tested on: U-87 MG; assay: Antiproliferative activity against human U-87 MG cells assessed as inhibition of cell growth incubated for 48 hrs by MTT assay; type: functional, cell-based, U-87MG ATCC
[37] = tested on: U-251; assay: Antiproliferative activity against human U-251 cells assessed as inhibition of cell growth incubated for 48 hrs by MTT assay; type: functional, cell-based; conditions: U-251, 48 h
[38] = tested on: U-87 MG; assay: Induction of apoptosis in human U-87 MG cells assessed as total apoptotic cells at 2 uM incubated for 48 hrs by Annexin V-FITC/PI staining based flow cytometry analysis (reference value: 16 +/- 1%); type: functional, U-87MG ATCC
[39] = tested on: U-87 MG; assay: Induction of apoptosis in human U-87 MG cells assessed as total apoptotic cells at 10 uM incubated for 48 hrs by Annexin V-FITC/PI staining based flow cytometry analysis (reference value: 16 +/- 1%); type: functional, U-87MG ATCC
[40] = tested on: T98G; assay: Induction of apoptosis in human T98G cells assessed as late apoptotic cells at 450 uM incubated for 48 hrs by Annexin V-FITC/PI staining based flow cytometry analysis (reference value: 3.7 +/- 0.3 %); type: functional
[41] = tested on: U-251; assay: Induction of apoptosis in human U-251 cells assessed as late apoptotic cells at 450 uM incubated for 48 hrs by Annexin V-FITC/PI staining based flow cytometry analysis (reference value: 1.3 +/- 0.6%); type: functional
[42] = tested on: U-87 MG; assay: Induction of apoptosis in human U-87 MG cells assessed as total apoptotic cells at 450 uM incubated for 48 hrs by Annexin V-FITC/PI staining based flow cytometry analysis (reference value: 16 +/- 1%); type: functional, U-87MG ATCC
[43] = tested on: U-87 MG; assay: Induction of apoptosis in human U-87 MG cells assessed as early apoptotic cells at 450 uM incubated for 48 hrs by Annexin V-FITC/PI staining based flow cytometry analysis (reference value: 1.1 +/- 0.6 %); type: functional, U-87MG ATCC
[44] = tested on: U-87 MG; assay: Induction of apoptosis in human U-87 MG cells assessed as late apoptotic cells at 450 uM incubated for 48 hrs by Annexin V-FITC/PI staining based flow cytometry analysis (reference value: 11 +/- 1%); type: functional, U-87MG ATCC
[45] = tested on: U-251; assay: Induction of apoptosis in human U-251 cells assessed as early apoptotic cells at 450 uM incubated for 48 hrs by Annexin V-FITC/PI staining based flow cytometry analysis (reference value: 1.5 +/- 0.4 %); type: functional
[46] = tested on: U-251; assay: Induction of apoptosis in human U-251 cells assessed as total apoptotic cells at 450 uM incubated for 48 hrs by Annexin V-FITC/PI staining based flow cytometry analysis (reference value: 2.8 +/- 0.3%); type: functional
[47] = tested on: T98G; assay: Induction of apoptosis in human T98G cells assessed as early apoptotic cells at 450 uM incubated for 48 hrs by Annexin V-FITC/PI staining based flow cytometry analysis (reference value: 2.7 +/- 0.5 %); type: functional
[48] = tested on: T98G; assay: Induction of apoptosis in human T98G cells assessed as total apoptotic cells at 450 uM incubated for 48 hrs by Annexin V-FITC/PI staining based flow cytometry analysis (reference value: 6.4 +/- 0.8 %); type: functional

In the case of `CC1(C)CC(=O)C2=C(O1)C(=O)[C@@]1(O)C[C@@H](O)C(C)(C)O[C@H]1[C@@H]2O`, the Activity [1] is reported as “inactive”, the Activity ([2]; U-87MG ATCC) is reported as “inactive” and the Activity [3] is reported as “inactive”.

With `C=C(C)C#C[C@]12O[C@H]1[C@@H]1OC(C)(C)[C@H](OC(C)=O)C[C@@]13O[C@H]3C2=O` the Activity [4] was 5%, the Activity [5] was 14% and the inhibition [6] was “Active”. The Activity [7] was 16%, the Activity [8] was 9% and the Activity [9] was 3.1%. For the same molecule, the Activity [10] was 2%, the Activity [11] was 6.5% and the Activity [12] was 2.6%. The Activity [13] was 67%, the Activity [14] was 3.6% and the inhibition [15] was “Dose-Dependent Effect”. For the same molecule, the Activity [16] was 11%, the Activity [17] was 4.1% and the inhibition [18] was “Dose-Dependent Effect”. For the same molecule, the Activity [19] was 1.2%, the Activity [20] was 6% and the Activity [21] was 10%. The Activity [22] was 17%, the Activity [23] was 4.8% and the Activity [24] was 5.1%. For the same molecule, the inhibition [25] was “Active”, the inhibition [26] was “Active” and the Activity [27] was 3.2%. The Activity [28] was 1.5%, the Activity [29] was 18% and the Activity [30] was 5.6%. For the same molecule, the Activity [2] was >50%, the Activity [31] was 7.7% and the Activity [32] was 30%. For the same molecule, the inhibition [33] was “Dose-Dependent Effect”, the Activity [34] was 5.4% and the IC50 [35] was 13 µM. For the same molecule, the Activity [3] was >50%, the IC50 [36] was 6.8 µM and the IC50 [37] was 20 µM. For the same molecule, the Activity [38] was 22% and the Activity [39] was 84%.

For `Cn1nnc2c(C(N)=O)ncn2c1=O` [TEMOZOLOMIDE], the Activity [40] was 9.9%, the Activity [41] was 4.6% and the Activity [42] was 15%. It also gave an Activity [43] of 4.2%, an Activity [44] of 11% and an Activity [45] of 3.7%. The Activity [46] was 8.3%, the Activity [47] was 7.5% and the Activity [48] was 18%. It also gave an IC50 [35] of 151 µM, an IC50 [36] of 203 µM and an IC50 [37] of 189 µM.

`CC1(C)CC(=O)c2cc3c(c(Cl)c2O1)C[C@@H](O)C(C)(C)O3` was tested, and the Activity [1] was “inactive”, the Activity ([2]; U-87MG ATCC) was “inactive” and the Activity [3] was “inactive”.
